Assay results from the OPERA property sets (Mansouri et al. 2018).
Peptide text beside a SMILES is read from it.

SMILES	logP
CCC(C)C(NC(=O)C(CCCCN)NC(C)=O)C(=O)NC(Cc1ccccc1)C(N)=O (configuration not stated)	0.65
O=C(O)c1cc(Br)ccc1O	3.23
COC(=O)CC(=O)OC	-0.05
O=c1[nH]cc(Br)c(=O)[nH]1	-0.21
CC(C)Oc1ccccc1O	2.09
O=C(O)c1ccccc1F	1.77
CC(C)NCC(O)COc1cccc2[nH]c3ccccc3c12 (configuration not stated)	3.59
CCC(C)NC(=O)C=C(SC)c1ccccc1 (configuration not stated)	3.03
Clc1cccc(-c2cccc(Cl)c2Cl)c1Cl	6.18
OCc1ccoc1	0.3
NCCC(N)C(=O)O (configuration not stated)	-4.64
CCC1COC(Cn2cncn2)(c2ccc(-c3ccccc3)cc2)O1 (configuration not stated)	3.71
C1COC1	-0.14
CC(Oc1ccc(Cl)cc1)C(=O)O (configuration not stated)	2.31
c1cnc2[nH]ccc2c1	1.82
Cc1cccc(OCC(O)CNC(C)C)c1 (configuration not stated)	1.93
O=C(N/N=C/c1cc[nH]c1)Nc1ccccc1	2.96
O=C(O)C1c2ccccc2Oc2ccccc21	2.23
CCNC(=O)c1ccco1	0.61
ICI	2.3
CCNC(=S)Nc1ccccc1	1.42

SMILES	logP
O=c1ccnc(S)[nH]1	-0.28
COc1cccc(N)c1	0.93
Cc1cc(C(=O)NN)ccn1	-0.37
S=C=NCc1ccccc1	3.16
N#CC#N	0.07
Nc1ccc(S(=O)(=O)Nc2ccnn2-c2ccccc2)cc1	1.52
O=[N+]([O-])c1ccc(Cl)c(Cl)c1Cl	3.61
CC1OC(C)OC(C)O1 (configuration not stated)	0.67
O=S(=O)(Nc1ccccc1)C(F)(F)F	3.05
CN(C)C(N(C)C)=S(I)c1cc(Cl)c(Cl)c(Cl)c1 (configuration not stated)	0.74
CC(C)COC(=O)c1cc(O)c(O)c(O)c1	2.46
C(=NN1CCCCC1)c1ccccc1	3.04
O=NN(CCCl)C(=O)NC1C(O)OC(CO)C(O)C1O (configuration not stated)	-1.02
O=c1c(O)c(-c2ccc(O)cc2O)oc2cc(O)cc(O)c12	1.54
COc1ccccc1C(=O)NCCN(C)C	1.14
CC(=O)N[C@@H](C)C(=O)N[C@@H](CC(C)C)C(N)=O (Ac-Ala-Leu-NH2)	-0.54
CC(=O)C(=Cc1ccc(Br)cc1)C(C)=O	2.75
CCCCOC(=O)c1cc(O)c(O)c(O)c1	2.41
O=C1C=CC(=O)c2ccccc21	1.71
CC(O)CO (configuration not stated)	-0.92
CCCCNc1nc(NCC)nc(SC(F)F)n1	4.51

SMILES	logP
CC1=NCCN1	0.52
Cc1ccc(O)c(C)c1	2.3
CCCCCCCCOc1ccccc1NC(=O)OCCN1CCCCC1	6.36
OC[C@H]1O[C@@H](Oc2ccc(O)cc2)[C@H](O)[C@@H](O)[C@@H]1O	-1.35
Nc1ccc(C(=O)Oc2cccc(C(F)(F)F)c2)c(O)c1	3.61
CCC(=O)c1ccncc1	0.77
COC=O	0.03
O=c1nn[nH]c2ccccc12	0.83
Nc1cccc(Cl)c1	1.88
O=C(O)c1ccc(O)cc1	1.58
CCSc1ccc2c(c1)N(CCCN1CCN(C)CC1)c1ccccc1S2	5.41
Oc1c(Br)cc(Br)c(O)c1Br	4.37
Cc1cccc(C#N)n1	0.84
Cc1[nH]ncc1[N+](=O)[O-]	1.02
O=C(Nc1ccccc1)C1CNCCN1 (configuration not stated)	0.48
Cc1nc(N)nc(N)c1C12CC3CC(CC(C3)C1)C2	2.64
O=C(O)Cc1ccccc1Nc1ccc(Cl)c(Cl)c1	4.9
O=C(O)c1cccc(I)c1	3.13
NC(=O)N(CCCl)N=O	0.57
Nc1ccc(N)cc1	-0.3
CCCCOC(=O)c1ccc(C(=O)OCCCC)cc1	5.53

SMILES	logP
N#Cc1ccc(C(O)C(CO)NC(=O)C(Cl)Cl)cc1 (configuration not stated)	0.78
CCCCC[N+](=O)[O-]	2.01
CC(=O)Nc1ccc(I)cc1	2.71
CCCCF	2.58
OCCCc1nc2ccccc2[nH]1	1.25
Oc1ccc(C(F)(F)F)cc1	2.82
Nc1ccc(C(=O)Oc2ccc(F)cc2)c(O)c1	3.27
CN(C)S(=O)(=O)c1ccc(N)cc1	0.67
CC(=O)OCCn1c([N+](=O)[O-])cnc1C	0.3
COc1cc(SC)c(OC)cc1CCN	1.81
Oc1ccc(Cl)c2ccccc12	3.94
CN(C)C(=O)N(c1ccccc1)c1ccccc1	2.8
CON(C)C(=O)Nc1ccccc1	1.29
FC(F)(F)c1nc2c(Cl)c(Cl)ccc2[nH]1	3.49
COc1c(O)c(C)c(C)c(O)c1OC	1.6
CN(C)c1ccc(C=C[N+](=O)[O-])cc1	2.67
CC(=O)CCC1CC1	1.5
CCN(CC)CCNC(=O)c1cc(Cl)ccc1OC	3.11
N#CCCCc1ccccc1	2.21
